Data taken from patent US10035791B2, “Bicyclic compound and pharmaceutical composition thereof for treating stroke and use thereof” (China Medical University, priority 2016, dated 2018).

What was measured:
Bmi-1 [1] = assay: Bmi-1 expressions in the brains of the ischemic rats, Western blot; format: in vivo, Sprague-Dawley (SD) rats
Source text: (§1) The ischemic rats are induced by an ischemia-reperfusion model to simulate transient focal cerebral ischemia in rats. Test animals are male Sprague-Dawley (SD) rats weighing 250-300 g. The rats are anesthetized with chloral hydrate (0.4 g/kg IP) and subjected to cerebral ischemia. The ischemia-reperfusion model is induced by ligations of bilateral common carotid arteries (CCAs) and a right middle cerebral artery (MCA). The bilateral CCAs are clamped with non-traumatic arterial clips, and the right MCA is ligated with an 10-0 nylon suture. After 90 minutes ischemia, the suture on the MCA and the arterial clips on CCAs are removed to allow reperfusion. Core body temperature is monitored with a thermistor probe (Hewlett-Packard Model 21090A probe, Hewlett-Packard Company, Andover, Mass.), and maintained at 37° C. with a heating pad during anesthesia. After recovery from anesthesia, rat body temperature is maintained at 37° C. with a heat lamp.
The ischemia-reperfusion model is established as described above. The ischemic rats are injected intraperitonealy with different dosages of the Compound 1 (0.1 mg/kg, 1 mg/kg and 10 mg/kg) at 4 hours after MCA ligation for three consecutive days. Sham rats undergo same protocol with the exception of the ligation of the bilateral CCAs and the right MCA. The rats only injected a vehicle are used as the control. The ischemic rats are decapitated at 4 hours, 16 hours, 24 hours, 36 hours and 72 hours after the Compound 1 injection. The Bmi-1 expressions and the HIF-1α expressions of the ischemic rats are detected by the Western blot analysis.
The ischemic rats are further treated with 100 mg/kg of the 2-ME2 or stereotaxic injected with the LV-Bmi-1-sh or the LV-control-sh to inhibit the HIF-1α expressions and the Bmi-1 expressions, and then the ischemic rats are treated with 1 mg/kg of the Compound 1. The effect of the administration of the Compound 1 on the Bmi-1 expressions in the brains of the ischemic rats which are reduced the Bmi-1 expressions or the HIF-1α expressions are detected by the Western blot analysis.

HIF-1α = HIF-1α expressions of the NSCs, Western blot; format: cell-based, mice
Experimental: (§2) To prepare the NSCs, after removal of meninges, subventricular zones (SVZ) of lateral ventricles from adult mice brain (4 week-of-age) are aseptically isolated and dissociated as previously described (J Cell Sci 2006; 119, 4467-4474). All steps are operated under sterile conditions. Then, neurosphere culture are prepared in neurobasal (NB) medium (Gibco BRL) supplemented with 2% of B27 (Gibco BRL), 2 mM of L-glutamine (PAN Biotech), 100 U/ml of penicillin/0.1 […] of streptomycin (Gibco BRL). For maintenance and expansion of the cultures, the NB/B27 is further supplemented with 2 μg/mL of heparin (Sigma), 20 ng/mL of FGF-2 (R&D Systems) and 20 ng/mL of EGF (R&D Systems). Neurosphere cultures are maintained at 37° C. in a humidified incubator with 5% CO2. For clonal/low density cultures, primary neurospheres grown at high density are dissociated into a single cell suspension and reseeded into 96-well plates at 100 cells per ml of media and the number of newly formed neurospheres is counted after 7 days. In addition, the Bmi-1 expressions, SOX2 expressions, Nestin expressions, Musashi-1 expressions, BrdU expressions and ki-67 expressions of the newly formed neurospheres are determined by the immunofluorescence staining. […]
(§3) The NSCs are exposed to the various dosages of the Compound 1 (0.1 μM, 1 μM, 10 μM and 100 μM) and cultured in the neurosphere culture. The HIF-1α expressions and the Bmi-1 expressions of the NSCs are detected by the Western blot analysis. […]
(§4) In another example, the HIF-1α expressions of the NSCs are inhibited and then 1 μM of the Compound 1 is added into the medium of the NSCs. The HIF-1α expression and the Bmi-1 expressions of the NSCs are detected by the Western blot analysis. […]
(§5) In still another example, the NSCs are exposed to 1 μM of the Compound 1 and further cultured for various lengths of time (0.5 hour, 1 hour, 4 hours, 8 hours, 16 hours and 24 hours). The HIF-1α expressions and the Bmi-1 expressions of the NSCs are detected by the Western blot analysis. […]

ischemic rats = assay: Volume of the infarction after cerebral ischemia, magnetic resonance imaging (MRI); format: in vivo, Sprague-Dawley (SD) rats
Source text: as §1
Further, the ischemic rats are assigned into 5 groups, 4 test groups and 1 control group. The ischemic rats of the test groups are injected with 1 mg/kg of the Compound 1, 30 mg/kg of the genipin, 1 mg/kg of the Compound 1 and 100 mg/kg of 2-ME2, and 1 mg/kg of the Compound 1 and the LV-Bmi-1-sh, respectively. The ischemic rats of the control group are injected with the vehicle. At 7 days after the injection, the ischemic rats of the different groups are anesthetized, and the volume of the infarction thereof is assessed by a magnetic resonance imaging (MRI).

Bmi-1 [2] = assay: Bmi-1 expressions of the NSCs, Western blot; format: cell-based, mice
Experimental: as §2, §3, §4, §5

[3] = 1 μM, 0.5 to 24 hours tested, FIG. 10C
[4] = 0.1, 1, 10, 100 μM, normoxia (21% O2), in particular 1 μM, FIG. 10A
[5] = 1 mg/kg, 7 days after the injection, FIGS. 18A, 18B
[6] = 1 μM 2-ME2 for 16 hours, then 1 μM Compound 1, FIG. 10B

| SMILES | treatment time with the highest Bmi-1 expression (Bmi-1 [1]; 1 mg/kg, 4 to 72 hours after injection, FIG. 13A) | Bmi-1 expressions in the brains of the ischemic rats (Bmi-1 [1]; 0.1, 1, 10 mg/kg intraperitoneal, vs control and sham rats, FIGS. 13A to 13C) | dosage with the highest Bmi-1 expression (Bmi-1 [1]; 0.1, 1, 10 mg/kg tested, 36 hours, FIG. 13B) | exposure time at which the NSCs express the most HIF-1α (HIF-1α; [3]) | HIF-1α expressions of the NSCs (HIF-1α; [4]) | effect on the reduction of the infarction area, compared with genipin (ischemic rats; 1 mg/kg Compound 1 vs 30 mg/kg genipin, 7 days) | area of the largest infarction (MRI) (ischemic rats; [5]) | volume of the infarction (MRI) (ischemic rats; [5]) | exposure time at which the NSCs express the most Bmi-1 (Bmi-1 [2]; [3]) | Bmi-1 expressions of the NSCs (Bmi-1 [2]; [4]) | increased Bmi-1 expressions by the Compound 1 treatment in brains of ischemic rats (Bmi-1 [1]; 100 mg/kg 2-ME2 plus 1 mg/kg Compound 1, FIG. 13C) | enhancement of the HIF-1α expressions induced by the Compound 1 in NSCs (HIF-1α; [6]) | Compound-1-induced reduction of the volume of the infarction (MRI) (ischemic rats; 100 mg/kg 2-ME2 plus 1 mg/kg Compound 1, 7 days) | enhancement of the Bmi-1 expressions induced by the Compound 1 in NSCs (Bmi-1 [2]; [6]) |
| --- | --- | --- | --- | --- | --- | --- | --- | --- | --- | --- | --- | --- | --- | --- |
| COC(=O)C1=CO[C@@H](O)[C@@H]2C(COC(=O)[C@@H](N)Cc3ccccc3)=CC[C@H]12 [Compound 1] | 36 h | significantly increases | 1 mg/kg | 0.5 h | increased | better than that of the genipin | significantly reduced | significantly reduced | 16 h | increased |  |  |  |  |
| COc1cc2c(cc1O)CC[C@@H]1[C@@H]2CC[C@]2(C)[C@@H](O)CC[C@@H]12 [Compound 2-ME2, 2-Methoxyestradiol, reference compound] |  |  |  |  |  |  |  |  |  |  | inhibited | abolished | abolishes | abolished |
